pEC50: −log10 of the molar value. Starred links: 1 amine or outer side, 2 acyl side, 3 side chain; linkers in the order of their positions; H or OH if unused. Non-standard residues stand in square brackets, D forms with d. Residues, ends and D or L forms follow the SMILES beside them. Groups on a side chain read outwards from the residue. *: point of attachment. C20 diacid = O=C(O)CCCCCCCCCCCCCCCCCCC(=O)*; C18 diacid = O=C(O)CCCCCCCCCCCCCCCCC(=O)*; γGlu = O=C(O)[C@H](CCC(=O)[*:2])N[*:1]; αMeF = C[C@](N)(Cc1ccccc1)C(=O)O; PEG4 = NCCOCCOCCOCCOCCC(=O)O; AEEA = NCCOCCOCC(=O)O; Aib = CC(C)(N)C(=O)O
Columns and labels:
[1] = target: human glucagon receptor (hGCGR) (Homo sapiens, UniProt P47871); experiment: cAMP production (HTRF) in CHO cells expressing hGCGR; type: cell-based; parameters: expressed in transfected cells; settings: Table 7, peptides modified at position 20; cAMP in CHO hGCGR cells; geometric mean; read-out: hGluc-R EC50
Summary of the method: (§1)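 Cells were resuspended in assay buffer at batch-optimized density, typically 1×10^5 cells/mL for hGLP-1R and 2×10^5 cells/mL for hGCGR. After 30 min incubation at room temperature with compound, cAMP was measured by two-step HTRF. EC50 values came from 4-parameter logistic fits of % Delta F.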

[2] = target: human GLP-1 receptor (hGLP-1R) (Homo sapiens, UniProt P43220); experiment: cAMP production (HTRF) in CHO cells expressing hGLP-1R; type: cell-based; parameters: expressed in transfected cells; settings: for pEC50: Table 7, peptides modified at position 20, cAMP in CHO hGLP-1R cells, geometric mean, read-out: hGLP-1R EC50; for % Relative Potency Ratio: Table 7, % GLP-1R activity relative to GLP-1 / % GlucR activity relative to glucagon
Summary of the method: as §1

Chain of human glucagon receptor (hGCGR) (P47871 26-477): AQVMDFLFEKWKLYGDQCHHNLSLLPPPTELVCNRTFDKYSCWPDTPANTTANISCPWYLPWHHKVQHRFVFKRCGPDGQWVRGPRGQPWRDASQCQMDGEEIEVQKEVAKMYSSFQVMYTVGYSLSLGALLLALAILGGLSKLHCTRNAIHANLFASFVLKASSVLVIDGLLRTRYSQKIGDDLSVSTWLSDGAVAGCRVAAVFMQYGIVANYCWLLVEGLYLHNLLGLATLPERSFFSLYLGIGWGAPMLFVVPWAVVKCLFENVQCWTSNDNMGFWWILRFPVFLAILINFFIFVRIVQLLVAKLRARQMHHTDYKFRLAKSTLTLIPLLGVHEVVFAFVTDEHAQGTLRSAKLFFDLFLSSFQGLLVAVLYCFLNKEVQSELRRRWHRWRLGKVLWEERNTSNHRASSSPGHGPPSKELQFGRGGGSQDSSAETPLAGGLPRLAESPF
Chain of human GLP-1 receptor (hGLP-1R) (P43220 24-463): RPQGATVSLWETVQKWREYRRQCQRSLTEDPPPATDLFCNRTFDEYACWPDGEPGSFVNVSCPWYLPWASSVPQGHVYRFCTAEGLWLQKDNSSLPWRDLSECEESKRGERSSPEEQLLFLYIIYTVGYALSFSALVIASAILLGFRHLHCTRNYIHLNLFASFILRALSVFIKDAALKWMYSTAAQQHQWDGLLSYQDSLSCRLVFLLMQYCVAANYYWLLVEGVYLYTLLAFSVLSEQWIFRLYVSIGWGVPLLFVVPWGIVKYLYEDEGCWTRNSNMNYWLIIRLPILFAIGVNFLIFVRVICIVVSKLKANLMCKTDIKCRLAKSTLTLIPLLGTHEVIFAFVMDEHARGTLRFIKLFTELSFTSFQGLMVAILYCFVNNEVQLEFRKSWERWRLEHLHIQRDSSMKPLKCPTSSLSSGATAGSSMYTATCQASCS

Structure (SMILES) | pEC50 [1] | pEC50 [2] | % Relative Potency Ratio [2]
CC[C@H](C)[C@H](NC(=O)C(C)(C)NC(=O)[C@H](CCC(N)=O)NC(=O)[C@@H](NC(=O)[C@](C)(Cc1ccccc1)NC(=O)[C@H](CC(=O)O)NC(=O)[C@H](CCCCNC(=O)CCOCCOCCOCCOCCNC(=O)CC[C@H](NC(=O)CC[C@H](NC(=O)CCCCCCCCCCCCCCCCCCC(=O)O)C(=O)O)C(=O)O)NC(=O)[C@H](C)NC(=O)[C@H](C)NC(=O)[C@H](CCCNC(=N)N)NC(=O)[C@H](CO)NC(=O)[C@H](CC(=O)O)NC(=O)[C@H](CC(C)C)NC(=O)[C@](C)(Cc1ccccc1)NC(=O)[C@H](CCCCN)NC(=O)[C@H](CO)NC(=O)[C@@H](NC(=O)[C@H](CC(=O)O)NC(=O)[C@H](CO)NC(=O)[C@@H](NC(=O)[C@](C)(Cc1ccccc1)NC(=O)[C@H](CO)NC(=O)CNC(=O)[C@H](Cc1c[nH]cn1)NC(=O)C(C)(C)NC(=O)[C@@H](N)Cc1c[nH]cn1)[C@@H](C)O)C(C)C)C(C)C)C(=O)N[C@@H](C)C(=O)N[C@@H](CC(N)=O)C(=O)N[C@H](C(N)=O)[C@@H](C)O [Peptide 269] (H-H[Aib]HGS[αMeF]TSDVSK[αMeF]LDSRAAK([PEG4-γGlu-γGlu-C20 diacid])D[αMeF]VQ[Aib]IANT-NH2; N-terminus assumed) | 9.57 | 10.28 | 10.3
CC[C@H](C)[C@H](NC(=O)C(C)(C)NC(=O)[C@H](CCC(N)=O)NC(=O)[C@@H](NC(=O)[C@](C)(Cc1ccccc1)NC(=O)[C@H](CC(=O)O)NC(=O)[C@H](CCCCNC(=O)COCCOCCNC(=O)COCCOCCNC(=O)CCCCCCCCCCCCCCCCC(=O)O)NC(=O)[C@H](C)NC(=O)[C@H](C)NC(=O)[C@H](CCCNC(=N)N)NC(=O)[C@H](CO)NC(=O)[C@H](CC(=O)O)NC(=O)[C@H](CC(C)C)NC(=O)[C@](C)(Cc1ccccc1)NC(=O)[C@H](CCCCN)NC(=O)[C@H](CO)NC(=O)[C@@H](NC(=O)[C@H](CC(=O)O)NC(=O)[C@H](CO)NC(=O)[C@@H](NC(=O)[C@](C)(Cc1ccccc1)NC(=O)[C@H](CO)NC(=O)CNC(=O)[C@H](Cc1c[nH]cn1)NC(=O)C(C)(C)NC(=O)[C@@H](N)Cc1c[nH]cn1)[C@@H](C)O)C(C)C)C(C)C)C(=O)N[C@@H](C)C(=O)N[C@@H](CC(N)=O)C(=O)N[C@H](C(N)=O)[C@@H](C)O [Peptide 272] (H-H[Aib]HGS[αMeF]TSDVSK[αMeF]LDSRAAK([AEEA-AEEA-C18 diacid])D[αMeF]VQ[Aib]IANT-NH2) | 10.84 | 10.81 | 1.8
CC[C@H](C)[C@H](NC(=O)C(C)(C)NC(=O)[C@H](CCC(N)=O)NC(=O)[C@@H](NC(=O)[C@](C)(Cc1ccccc1)NC(=O)[C@H](CC(=O)O)NC(=O)[C@H](CCCCNC(=O)COCCOCCNC(=O)CC[C@H](NC(=O)CC[C@H](NC(=O)CCCCCCCCCCCCCCCCC(=O)O)C(=O)O)C(=O)O)NC(=O)[C@H](C)NC(=O)[C@H](C)NC(=O)[C@H](CCCNC(=N)N)NC(=O)[C@H](CO)NC(=O)[C@H](CC(=O)O)NC(=O)[C@H](CC(C)C)NC(=O)[C@](C)(Cc1ccccc1)NC(=O)[C@H](CCCCN)NC(=O)[C@H](CO)NC(=O)[C@@H](NC(=O)[C@H](CC(=O)O)NC(=O)[C@H](CO)NC(=O)[C@@H](NC(=O)[C@](C)(Cc1ccccc1)NC(=O)[C@H](CO)NC(=O)CNC(=O)[C@H](Cc1c[nH]cn1)NC(=O)C(C)(C)NC(=O)[C@@H](N)Cc1c[nH]cn1)[C@@H](C)O)C(C)C)C(C)C)C(=O)N[C@@H](C)C(=O)N[C@@H](CC(N)=O)C(=O)N[C@H](C(N)=O)[C@@H](C)O [Peptide 274] (H-H[Aib]HGS[αMeF]TSDVSK[αMeF]LDSRAAK([AEEA-γGlu-γGlu-C18 diacid])D[αMeF]VQ[Aib]IANT-NH2) | 10.50 | 10.57 | 2.3

Next, values leading:

pEC50 [1] | pEC50 [2] | % Relative Potency Ratio [2] | Structure (SMILES)
10.50 | 10.61 | 2.5 | CC[C@H](C)[C@H](NC(=O)C(C)(C)NC(=O)[C@H](CCC(N)=O)NC(=O)[C@@H](NC(=O)[C@](C)(Cc1ccccc1)NC(=O)[C@H](CC(=O)O)NC(=O)[C@H](CCCCNC(=O)CC[C@H](NC(=O)CC[C@H](NC(=O)CCCCCCCCCCCCCCCCC(=O)O)C(=O)O)C(=O)O)NC(=O)[C@H](C)NC(=O)[C@H](C)NC(=O)[C@H](CCCNC(=N)N)NC(=O)[C@H](CO)NC(=O)[C@H](CC(=O)O)NC(=O)[C@H](CC(C)C)NC(=O)[C@](C)(Cc1ccccc1)NC(=O)[C@H](CCCCN)NC(=O)[C@H](CO)NC(=O)[C@@H](NC(=O)[C@H](CC(=O)O)NC(=O)[C@H](CO)NC(=O)[C@@H](NC(=O)[C@](C)(Cc1ccccc1)NC(=O)[C@H](CO)NC(=O)CNC(=O)[C@H](Cc1c[nH]cn1)NC(=O)C(C)(C)NC(=O)[C@@H](N)Cc1c[nH]cn1)[C@@H](C)O)C(C)C)C(C)C)C(=O)N[C@@H](C)C(=O)N[C@@H](CC(N)=O)C(=O)N[C@H](C(N)=O)[C@@H](C)O [Peptide 270] (H-H[Aib]HGS[αMeF]TSDVSK[αMeF]LDSRAAK([γGlu-γGlu-C18 diacid])D[αMeF]VQ[Aib]IANT-NH2)
10.55 | 10.26 | 1.0 | CC[C@H](C)[C@H](NC(=O)C(C)(C)NC(=O)[C@H](CCC(N)=O)NC(=O)[C@@H](NC(=O)[C@](C)(Cc1ccccc1)NC(=O)[C@H](CC(=O)O)NC(=O)[C@H](CCCCNC(=O)CC[C@H](NC(=O)CCCCCCCCCCCCCCCCC(=O)O)C(=O)O)NC(=O)[C@H](C)NC(=O)[C@H](C)NC(=O)[C@H](CCCNC(=N)N)NC(=O)[C@H](CO)NC(=O)[C@H](CC(=O)O)NC(=O)[C@H](CC(C)C)NC(=O)[C@](C)(Cc1ccccc1)NC(=O)[C@H](CCCCN)NC(=O)[C@H](CO)NC(=O)[C@@H](NC(=O)[C@H](CC(=O)O)NC(=O)[C@H](CO)NC(=O)[C@@H](NC(=O)[C@](C)(Cc1ccccc1)NC(=O)[C@H](CO)NC(=O)CNC(=O)[C@H](Cc1c[nH]cn1)NC(=O)C(C)(C)NC(=O)[C@@H](N)Cc1c[nH]cn1)[C@@H](C)O)C(C)C)C(C)C)C(=O)N[C@@H](C)C(=O)N[C@@H](CC(N)=O)C(=O)N[C@H](C(N)=O)[C@@H](C)O [Peptide 271] (H-H[Aib]HGS[αMeF]TSDVSK[αMeF]LDSRAAK([γGlu-C18 diacid])D[αMeF]VQ[Aib]IANT-NH2; N-terminus assumed)
10.63 | 10.66 | 2.1 | CC[C@H](C)[C@H](NC(=O)C(C)(C)NC(=O)[C@H](CCC(N)=O)NC(=O)[C@@H](NC(=O)[C@](C)(Cc1ccccc1)NC(=O)[C@H](CC(=O)O)NC(=O)[C@H](CCCCNC(=O)COCCOCCNC(=O)CCCCCCCCCCCCCCCCC(=O)O)NC(=O)[C@H](C)NC(=O)[C@H](C)NC(=O)[C@H](CCCNC(=N)N)NC(=O)[C@H](CO)NC(=O)[C@H](CC(=O)O)NC(=O)[C@H](CC(C)C)NC(=O)[C@](C)(Cc1ccccc1)NC(=O)[C@H](CCCCN)NC(=O)[C@H](CO)NC(=O)[C@@H](NC(=O)[C@H](CC(=O)O)NC(=O)[C@H](CO)NC(=O)[C@@H](NC(=O)[C@](C)(Cc1ccccc1)NC(=O)[C@H](CO)NC(=O)CNC(=O)[C@H](Cc1c[nH]cn1)NC(=O)C(C)(C)NC(=O)[C@@H](N)Cc1c[nH]cn1)[C@@H](C)O)C(C)C)C(C)C)C(=O)N[C@@H](C)C(=O)N[C@@H](CC(N)=O)C(=O)N[C@H](C(N)=O)[C@@H](C)O [Peptide 273] (H-H[Aib]HGS[αMeF]TSDVSK[αMeF]LDSRAAK([AEEA-C18 diacid])D[αMeF]VQ[Aib]IANT-NH2)

Reference: patent US20250353891A1 (MEDIMMUNE LIMITED, priority 2022, published 2025)
